Source: US20160022625A1, “TASHINONES AND THEIR DERIVATIVES: NOVEL EXCELLENT DRUGS FOR ALZHEIMER DISEASE” (priority 2013, published 2016)
Read-outs that look alike come from different tables or passages of the source.

Legend:
SH-SY5Y cells [1] = test: Live/dead cell assay, protection from Aβ-induced toxicity; assay type: cell-based, Human; settings: for protect cultured-cells from Aβ-induced toxicity by: co-incubation of Aβ with a very small amount of TSs; for percentage of dead cells (normalized to Aβ alone = 100%): tanshinone 4 μM + Aβ 20 μM (1:0.2), 24 hour, SH-SY5Y
Excerpt: (§1) In order to determine whether tanshinone compounds are able to protect neuronal cells from toxic Aβ species, we conducted cell viability experiments to compare the toxic effects of Aβ, TS1, TS2, Aβ-TS1, and Aβ-TS2 on the SH-SY5Y cells using the SH-SY5Y live/dead assay, which is widely used in studies of Aβ toxicity. Opti-MEM reduced serum medium was used to minimize the noise of fluorescence. We then set the cell death data obtained from Aβ-cell control experiment as a basis of 100% to normalize other data for comparison. […] When treated the cells with 8 μM TS1 or TS2 alone (Aβ:TS=1:0.4), cell death was 25.3% and 20.5% (FIG. 5), respectively. Considering the physiological concentration of Aβ is as low as 10^-9 M, 8 μM tanshinone may exceed a lethal dose to induce cell death. We thus reduced the concentation of TS1 or TS2 to a clinical trial level of 4 μM for cell viability tests. […] We then performed Aβ-tanshione cell toxicity experiments using a 1:0.2 mixture of tanshinones (4 μM) and Aβ (20 μM). […] TS1 appears to be less toxic than TS2 by 13.8%.
(§2) All chemicals for cell culture were purchased from Life Technologies unless otherwise stated. Human neuroblastoma SH-SY5Y cell (ATCC, Manassas, Va., USA) was used as model neuron and cultured in 75 cm^2 T-flasks (Corning) in sterile-filtered Eagles Minimum Essential Medium and Ham's F-12 medium mixed at a 1:1 ratio containing 10% fetal bovine serum (EMEM, ATCC, Manassas, Va., USA), and 1% penicillin/streptomycin in 37° C., humidified air with 5% CO2. Cells were cultured to confluence, and harvested using 0.25 mg/ml Trypsin/EDTA solution (Lonza). Before adding Aβ and tanshinone, cells were re-suspended in Opti-MEM reduced serum medium and counted using a hemacytometer. Cells were then plated in a 24-well tissue culture plate with approximately 150,000 cells per well in 500 μl of Opti-MEM reduced serum medium, and allowed to attach for 24 hours inside the incubator.
Aβ oligomers were prepared by incubating a 1 mM Aβ-PBS solution at 37° C. for 24 h. Aβ oligomers with a molar ratio of Aβ:tanshinone of 1:0.2 were added to each well to reach a final concentration of 20 μM. The cells were then left for 24 hours before cell toxicity tests. A live/dead cytotoxicity assay, which determines live and dead cells with two probes by measuring intracellular esterase activity and plasma membrane integrity, was used to obtain cell viability/toxicity data. Cells were stained by adding 2 μM of Calcein AM (Life Technologies) to distinguish the presence of live cells with a fluorescence excitation/emission of 494/517 nm, while by adding 5 μM of Ethidium homodimer-1 (Life Technologies) to distinguish the presence of dead cells with a fluorescence excitation/emission of 528/617 nm. […] A Zeiss Axiovert 40 CFL inverted microscope fitted with filters at 510 nm and 600 nm was used to obtain fluorescence images of the live and dead cells. Fluorescence readings at 494/517 nm and 528/617 nm were detected using a Synergry H1 microplate reader (BioTek, Winooski, Vt.). […] Fi corresponds to the dead/live fluorescence signal of cells (blank control), cells co-incubate with TS1, cells co-incubate with TS2, cells co-incubate with Aβ and TS1, cells co-incubate with Aβ and TS2, and cells co-incubate with Aβ, respectively. FAβ represents the dead/live fluorescence signal of cells co-incubate with Aβ. The fluorescence signals of blank dyes were calibrated first and then subtracted from the fluorescence signals of medium solution.

SH-SY5Y cells [2] = test: Live/dead cell toxicity assay, tanshinone alone; assay type: cell-based
Excerpt: as §1, §2
Aβ oligomers were prepared by incubating a 1 mM Aβ-PBS solution at 37° C. for 24 h. Aβ oligomers with a molar ratio of Aβ:tanshinone of 1:0.2 were added to each well to reach a final concentration of 20 μM. The cells were then left for 24 hours before cell toxicity tests. A live/dead cytotoxicity assay, which determines live and dead cells with two probes by measuring intracellular esterase activity and plasma membrane integrity, was used to obtain cell viability/toxicity data. Cells were stained by adding 2 μM of Calcein AM (Life Technologies) to distinguish the presence of live cells with a fluorescence excitation/emission of 494/517 nm, while by adding 5 μM of Ethidium homodimer-1 (Life Technologies) to distinguish the presence of dead cells with a fluorescence excitation/emission of 528/617 nm. The cells were incubated for 15 minutes with the live/dead assay contents to activate the fluorescent dyes. A Zeiss Axiovert 40 CFL inverted microscope fitted with filters at 510 nm and 600 nm was used to obtain fluorescence images of the live and dead cells. Fluorescence readings at 494/517 nm and 528/617 nm were detected using a Synergry H1 microplate reader (BioTek, Winooski, Vt.). Cell death in each incubation condition was normalized using the equation of ΔF=(Fi/FAβ)*100%, where ΔF is the percentage of cell death in different incubation conditions compared with the death of cells co-incubate with Aβ. Fi corresponds to the dead/live fluorescence signal of cells (blank control), cells co-incubate with TS1, cells co-incubate with TS2, cells co-incubate with Aβ and TS1, cells co-incubate with Aβ and TS2, and cells co-incubate with Aβ, respectively. FAβ represents the dead/live fluorescence signal of cells co-incubate with Aβ. The fluorescence signals of blank dyes were calibrated first and then subtracted from the fluorescence signals of medium solution.

Aβ1-42 fibrils = target: T1, Aβ1-42 fibrils (Homo sapiens, UniProt P05067); test: Disruption assay of preformed Aβ fibrils (ThT fluorescence); assay type: biochemical; settings: 20 μM Aβ fibrils, 37° C.; for decrease in ThT fluorescence of preformed Aβ fibrils vs untreated Aβ control: Aβ:TS=1:1, 48 hour co-incubation; for ThT intensity of preformed Aβ fibrils decreased by: Aβ:TS=1:2, 48 hour co-incubation
T1 construct: Aβ1-42 peptide (≧95.5%) was all purchased from American Peptide Inc; purchased American Peptide Inc. (Sunnyvale, Calif.)
T1 sequence (P05067 672-713 limits assumed): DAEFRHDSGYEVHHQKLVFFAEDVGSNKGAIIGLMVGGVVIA
Description: The alternative potential therapeutic strategy to treat AD (Alzheimer's Disease) is to reduce the amount of the existing amyloid plaques. A very few molecules have been reported to disaggregate Aβ amyloid. […] To determine the ability of Aβ fibril dissolution by tanshinone in vitro, we set up experiments in which tanshinone was incubated with preformed fibrils. 20 μM Aβ fibrils were first prepared by incubating Aβ monomers in solution for 48 hour, which is sufficient long enough for Aβ to grow into mature fibrils as evidenced through AFM images and ThT fluorescence (FIG. 2). Upon 48 hour incubation, Aβ fibril solution was then co-incubated with TS1 or TS2 with different molar ratios of Aβ:TS (1:1, 1:2, and 1:5) for another 48 hour at 37° C.
Aβ1-42 fibrils were prepared by incubating 20 μM Aβ1-42 monomers for 48 h, which is sufficient long enough to enable Aβ peptides to grow into mature fibrils at a saturate state. The fibril solution was then divided into aliquots for the disruption tests. […] All the disruption samples were incubated at 37° C.
(§3) Aβ1-42 fibrillization and Aβ1-42 fibril disruption in the presence and absence of tanshinones were monitored by ThT fluorescence assay. 2 mM ThT store solution was prepared by adding 0.0328 g ThT powder into 50 mL DI water. 250 μL of the 2 mM ThT solution was further diluted into 50 mL Tris-buffer (pH=7.4) to reach a final concentration of 10 μM. 60 μL of 20 μM Aβ with or without tanshinone was put into 3 mL of 10 μM ThT-Tris solution. Fluorescence spectra were obtained using a LS-55 fluorescence spectrometer (Perkin Elmer Corp., Waltham, Mass.). All measurements were carried out in aqueous solution using a 1 cm×1 cm quartz cuvette. ThT fluorescence emission intensity of each sample was recorded between 460 and 510 nm with an excitation wavelength of 450 nm. Fluorescence intensity from solution without Aβ1-42 was subtracted from solution containing Aβ1-42. Each experiment was repeated in 3 independent samples and each sample was tested quadrupled.

Aβ1-42 [3] = target: T2, Aβ1-42 (Homo sapiens, UniProt P05067); test: AFM morphology of Aβ1-42 incubated with tanshinones; settings: Aβ:TS=1:1, within the first 4 hours
T2 construct: Aβ1-42 peptide (≧95.5%) was all purchased from American Peptide Inc; purchased American Peptide Inc. (Sunnyvale, Calif.)
T2 sequence (P05067 672-713 limits assumed): as above
Description: (§4) To examine the inhibitory effect of TS1 and TS2 on Aβ aggregation, the kinetics and morphological changes of Aβ1-42 amyloid formation in the presence of different molar ratios (Aβ:TS) of two tanshinone compounds were monitored by ThT fluorescence assay and AFM (Atomic force microscopy). 20 μM Aβ1-42 solution (with or without tanshinone) was incubated at 37° C. for 48 h. ThT fluorescence assay has been widely used to detect the formation of amyloid fibrils because the binding of thioflavin dyes to amyloid fibrils enables to reduce self-quenching by restricting the rotation of the benzothiozole and benzaminic rings, leading to a significant increase in fluorescence quantum yield. […] After 24 hour reaction, a strong ThT emission was observed and remained almost unchanged within statistic errors between 24 and 48 hour incubation.
The morphology change of Aβ fibrillization and disruption in the presence and absence of tanshinones was characterized by AFM. A 25 μL sample used in the Aβ1-42 ThT fluorescence assay was taken for AFM measurement at different time points to correlate Aβ morphology change with Aβ grow kinetics. […]

Aβ1-42 [4] = target: T2, Aβ1-42; test: ThT fluorescence assay of Aβ1-42 amyloid formation (inhibition assay); assay type: biochemical; settings: 20 μM Aβ1-42, 37° C.; for final ThT fluorescence intensity reduced by: Aβ:TS=1:2, 24 hour
Description: as §4
A homogeneous solution of Aβ monomers was required for inhibition tests. The purified Aβ1-42 powder was aliquoted in DMSO for 1 min and sonicated for 30 sec. The initiation of 20 μM Aβ1-42 [containing 1% (v/v) DMSO] aggregation in solution was accomplished by adding an aliquot of the concentrated DMSO-Aβ1-42 solution to 10 mM PBS buffer, followed by immediate vortexing to mix thoroughly. Aβ1-42 solution was then centrifuged with 14,000 rpm for 30 min at 4° C. to remove any existing oligomers, which 75% of the top solution was removed for further incubation or inhibition experiments. The pure Aβ1-42 solution was incubated at 37° C. as control. For Aβ inhibition experiments, 40 mM tanshinone (in DMSO) stock solution was dissolved in freshly prepared Aβ1-42 monomer solution to a final concentration of 20 μM and 40 μM (with Aβ:tanshinone molar ratio of 1:1 and 1:2), respectively. The mixed Aβ-tanshinone samples were incubated at 37° C.
as §3

Row | SMILES | protect cultured-cells from Aβ-induced toxicity by (SH-SY5Y cells [1]) [%] | less toxic than TS2 by (difference in dead cells) (SH-SY5Y cells [1]; tanshinone 4 μM + Aβ 20 μM) [%] | percentage of dead cells (normalized to Aβ alone = 100%) (SH-SY5Y cells [1]) [%] | cell death (normalized to Aβ-treated cells = 100%) (SH-SY5Y cells [2]; 4 μM TS alone, 24 hour, SH-SY5Y) [%] | cell death (normalized to Aβ-treated cells = 100%) (SH-SY5Y cells [2]; 8 μM TS alone, 24 hour, SH-SY5Y) [%] | signs of cell death by fluorescence microscopy (SH-SY5Y cells [2]; pure TS, 4 μM level, SH-SY5Y) | decrease in ThT fluorescence of preformed Aβ fibrils vs untreated Aβ control (Aβ1-42 fibrils) [%] | ThT intensity of preformed Aβ fibrils decreased by (Aβ1-42 fibrils) [%] | small spherical particles in AFM images (Aβ1-42 [3]) | ThT intensity relative to Aβ samples without inhibitors decreased by (Aβ1-42 [4]; Aβ:TS=1:1, 24 hour) [%] | ThT intensity relative to Aβ samples without inhibitors decreased by (Aβ1-42 [4]; Aβ:TS=1:1, 48 hour) [%] | final ThT fluorescence intensity reduced by (Aβ1-42 [4]) [%] | signs of cell death by fluorescence microscopy (SH-SY5Y cells [2]) | cell death (normalized to Aβ-treated cells = 100%) (SH-SY5Y cells [2]; human, 24 h, 4 μM) [%] | cell death (normalized to Aβ-treated cells = 100%) (SH-SY5Y cells [2]; human, 24 h, 8 μM) [%]
1 | Cc1coc2c1C(=O)C(=O)c1c-2ccc2c(C)cccc12 [TS1, tanshinone I] | ~57.5 | 13.8 | ~57.5 | 9.3 | 25.3 | no observable signs of cell death | ~0.8 | ~30 | 1-3 nm | 78.2 | 65.8 | 88.5 |  |  | 
2 | Cc1coc2c1C(=O)C(=O)c1c-2ccc2c1CCCC2(C)C [TS2, tanshinone IIA] | ~71.3 |  | ~71.3 |  |  |  | ~0.8 | ~30 | 1-6 nm | 44.8 | 34.6 | 83.4 | no observable signs of cell death | 5.8 | 20.5
